These results are taken from patent publication US20100310660A1, “DRY POWDER MICROPARTICLES FOR PULMONARY DELIVERY” (TAIPEI MEDICAL UNIVERSITY, priority 2009, published 2010).

The test has as its system A549 cells. Description: Photocytotoxicity (MTT assay after LED irradiation). The conditions noted are these: 0.5 μg/ml Hp, 3 hours. Type of test: cell-based, Human. The method, then:
Human lung adenocarcinoma A549 cells were kept in a humidified incubator containing 5% CO2 at 37° C. A549 cells were cultured in DMEM supplemented with 10% fetal bovine serum (FBS) and 1% penicillin-streptomycin (GIBCO BRL, USA). The cells were routinely grown in tissue culture flask and harvested with a solution of 1% trypsin while in the logarithmic phase of growth. The cells were kept in the above culture conditions for experiments.
A549 cells were grown in 96-well plates at a density of 8×10^3 cells/well for 24 hours. […] The cells were incubated for 3 hours (protection from light) and washed once with 100 μl PBS/well. The no phenol red medium (100 μl/well) was added to the cells and then irradiated with various doses of light using LED (635±5 nm, 60 mW/cm^2) light source. After light irradiation, the original medium was removed and DMEM containing 10% FBS was added to each well. Twenty-four hours later, cell survival was measured using an MTT [3(4,5-dimethyl-thiazoyl-2-yl) 2,5 diphenyl-tetrazolium bromide] assay. The MTT assay was based on the activity of mitochondria dehydrogenases wherein a water-soluble tetrazolium salt was reduced to a purple insoluble formazan product. The amount of MTT formazan product was analyzed with spectrophotometer at the absorbance of 570 nm.

Structures are written as SMILES. Structures can show the parent of a compound that is named as a salt.

`CC1=C(CCC(=O)O)c2cc3[nH]c(cc4nc(cc5[nH]c(cc1n2)c(C)c5C(C)O)C(C)=C4C(C)O)c(C)c3CCC(=O)O` (centres unmarked) [Hp, Hematoporphyrin Dihydrochloride] gave a cells alive (irradiation at 4 J/cm2) of 89% and a cells alive (irradiation at 12 J/cm2) of 75%.
